Data taken from patent US20260159512A1, “BCAT2 INHIBITORS” (AGIOS PHARMACEUTICALS, INC., priority 2021, published 2026).

How the values were obtained:
Conditions in all cases: average where tested multiple times
BCAT2 [1] = target: T1, BCAT2 (Homo sapiens, UniProt O15382); experiment: BCAT2 in vitro enzyme inhibition assay (resazurin/diaphorase-coupled fluorescence); assay type: biochemical
T1 sequence (O15382 28-392): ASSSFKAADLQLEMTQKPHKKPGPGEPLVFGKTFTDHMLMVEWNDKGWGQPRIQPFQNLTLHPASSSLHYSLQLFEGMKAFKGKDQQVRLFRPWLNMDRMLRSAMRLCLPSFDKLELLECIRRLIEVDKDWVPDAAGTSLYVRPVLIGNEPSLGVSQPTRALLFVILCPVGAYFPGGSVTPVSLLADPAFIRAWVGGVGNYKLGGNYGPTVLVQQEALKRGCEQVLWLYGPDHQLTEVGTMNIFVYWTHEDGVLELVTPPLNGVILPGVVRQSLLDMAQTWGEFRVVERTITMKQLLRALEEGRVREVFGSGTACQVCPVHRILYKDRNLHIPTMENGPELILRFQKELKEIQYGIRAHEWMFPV
Method in brief: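 Coupled fluorescence readout: glutamate formed from L-leucine/α-ketoglutarate transamination drives GDH/NAD/diaphorase reduction of resazurin (Ex 540/Em 590). Human BCAT2 was first exposed 1 h at room temperature to compound, top final 100 μM in 3-fold, 10-point series; substrate reaction ran 1 h before SDS quench, in technical duplicate with DMSO max and enzyme-free min controls.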

hBCAT1 = target: T2, hBCAT1 (Homo sapiens, UniProt P54687); experiment: BCAT1 in vitro enzyme inhibition assay (resazurin/diaphorase-coupled fluorescence); assay type: biochemical
T2 sequence (P54687 1-386): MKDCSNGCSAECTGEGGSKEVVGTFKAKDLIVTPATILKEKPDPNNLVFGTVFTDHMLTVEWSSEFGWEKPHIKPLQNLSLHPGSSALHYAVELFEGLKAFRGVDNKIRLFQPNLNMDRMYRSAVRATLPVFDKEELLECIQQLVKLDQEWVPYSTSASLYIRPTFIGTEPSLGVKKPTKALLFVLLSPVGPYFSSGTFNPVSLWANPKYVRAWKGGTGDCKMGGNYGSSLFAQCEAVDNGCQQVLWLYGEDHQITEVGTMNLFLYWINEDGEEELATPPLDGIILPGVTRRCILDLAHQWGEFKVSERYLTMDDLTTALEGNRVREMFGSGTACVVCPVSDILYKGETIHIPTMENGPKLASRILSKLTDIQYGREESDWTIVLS
Method in brief: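 Ten-point, 3-fold compound series (top final 100 μM, delivered 1:50 from 50× DMSO stocks) tested against hBCAT1. Inhibition detected via diaphorase-coupled resazurin fluorescence, duplicate wells, with values from repeated runs averaged.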

BCAT2 [2] = target: T1, BCAT2; experiment: BCAT2 in vitro cell inhibition using engineered A549 cells (KMV cell assay, 13C6-KMV by LC-MS/MS); assay type: cell-based; design: The result was an engineered A549 cell line that expressed endogenous BCAT2; endogenous in cells; host or cells: A549 cells with MUT and BCAT1 knocked out by CRISPR/CAS9

| SMILES | IC50 (BCAT2 [1]) [nM] | IC50 (hBCAT1) [nM] | IC50 (BCAT2 [2]) [nM] |
| --- | --- | --- | --- |
| CC(C)Cc1nc2cnc(-n3ncc(CO)n3)cc2n1[C@@H]1CCC[C@H](NC(=O)c2ncc(Cl)s2)C1 [Example 337, 5-chloro-N-((1S,3R)-3-(6-(4-(hydroxymethyl)-2H-1,2,3-triazol-2-yl)-2-isobutyl-1H-imidazo[4,5-c]pyridin-1-yl)cyclohexyl)thiazole-2-carboxamide] | ≤ 100 | < 500 | 500 to 1000 |
| O=C(N[C@H]1CCC[C@@H](n2c(-c3c(O)cccc3F)nc3cnc(-c4nc[nH]n4)cc32)C1)c1ccc(Cl)s1 [Example 338, 5-chloro-N-((1S,3R)-3-(2-(2-fluoro-6-hydroxyphenyl)-6-(1H-1,2,4-triazol-3-yl)-1H-imidazo[4,5-c]pyridin-1-yl)cyclohexyl)thiophene-2-carboxamide] | ≤ 100 | < 500 | ≤ 100 |
| O=C(N[C@H]1CCC[C@@H](n2c(-c3c(O)cccc3F)nc3cnc(-c4nc[nH]n4)cc32)C1)c1ncc(Cl)s1 [Example 339, 5-chloro-N-((1S,3R)-3-(2-(2-fluoro-6-hydroxyphenyl)-6-(1H-1,2,4-triazol-3-yl)-1H-imidazo[4,5-c]pyridin-1-yl)cyclohexyl)thiazole-2-carboxamide] | ≤ 100 | < 500 | ≤ 100 |
| O=C(N[C@H]1CCC[C@@H](n2c(-c3ccccc3O)nc3cnc(-c4nc[nH]n4)cc32)C1)c1ncc(Cl)s1 [Example 340, 5-chloro-N-((1S,3R)-3-(2-(2-hydroxyphenyl)-6-(1H-1,2,4-triazol-3-yl)-1H-imidazo[4,5-c]pyridin-1-yl)cyclohexyl)thiazole-2-carboxamide] | ≤ 100 | < 500 | ≤ 100 |
| C#Cc1ccc(C(=O)N[C@H]2CCC[C@@H](n3c(CC(C)C)nc4cnc(-c5nc[nH]n5)cc43)C2)s1 [Example 341, 5-ethynyl-N-((1S,3R)-3-(2-isobutyl-6-(1H-1,2,4-triazol-3-yl)-1H-imidazo[4,5-c]pyridin-1-yl)cyclohexyl)thiophene-2-carboxamide] | ≤ 100 | 1000 to 5000 | ≤ 100 |
| CC(C)Cc1nc2cnc(-c3nc[nH]n3)cc2n1[C@@H]1CCC[C@H](NC(=O)c2ccc(C(F)(F)F)s2)C1 [Example 342, N-((1S,3R)-3-(2-isobutyl-6-(1H-1,2,4-triazol-3-yl)-1H-imidazo[4,5-c]pyridin-1-yl)cyclohexyl)-5-(trifluoromethyl)thiophene-2-carboxamide] | ≤ 100 | < 500 | ≤ 100 |
| COc1ccc(F)c(-c2nc3cnc(-c4nc[nH]n4)cc3n2[C@@H]2CCC[C@H](NC(=O)c3ccc(Cl)s3)C2)c1 [Example 343, 5-chloro-N-((1S,3R)-3-(2-(2-fluoro-5-methoxyphenyl)-6-(1H-1,2,4-triazol-3-yl)-1H-imidazo[4,5-c]pyridin-1-yl)cyclohexyl)thiophene-2-carboxamide] | ≤ 100 | 1000 to 5000 | 100 to 500 |
| CC(C)Cc1nc2cnc(-c3nc[nH]n3)cc2n1[C@@H]1CCC[C@H](NC(=O)c2ccc(C#N)s2)C1 [Example 344, 5-cyano-N-((1S,3R)-3-(2-isobutyl-6-(1H-1,2,4-triazol-3-yl)-1H-imidazo[4,5-c]pyridin-1-yl)cyclohexyl)thiophene-2-carboxamide] | ≤ 100 | < 500 | ≤ 100 |
| N#Cc1ccc(F)c(-c2nc3cnc(-c4nc[nH]n4)cc3n2[C@@H]2CCC[C@H](NC(=O)c3ccc(Cl)s3)C2)c1 [Example 345, 5-chloro-N-((1S,3R)-3-(2-(5-cyano-2-fluorophenyl)-6-(1H-1,2,4-triazol-3-yl)-1H-imidazo[4,5-c]pyridin-1-yl)cyclohexyl)thiophene-2-carboxamide] | 100 to 500 | 500 to 1000 | 500 to 1000 |
| CC(C)Cc1nc2cnc(-n3cc(CO)nn3)cc2n1[C@@H]1CCC[C@H](NC(=O)c2ncc(Cl)s2)C1 [Example 346, 5-chloro-N-((1S,3R)-3-(6-(4-(hydroxymethyl)-1H-1,2,3-triazol-1-yl)-2-isobutyl-1H-imidazo[4,5-c]pyridin-1-yl)cyclohexyl)thiazole-2-carboxamide] | 100 to 500 | > 5000 | > 1000 |
| COc1cccc(F)c1-c1nc2cnc(-c3nc[nH]n3)cc2n1[C@@H]1CCC[C@H](NC(=O)c2ccc(Cl)s2)C1 [Example 347, 5-chloro-N-((1S,3R)-3-(2-(2-fluoro-6-methoxyphenyl)-6-(1H-1,2,4-triazol-3-yl)-1H-imidazo[4,5-c]pyridin-1-yl)cyclohexyl)thiophene-2-carboxamide] | ≤ 100 | < 500 | ≤ 100 |
| COc1cccc(-c2nc3cnc(-c4nc[nH]n4)cc3n2[C@@H]2CCC[C@H](NC(=O)c3ccc(Cl)s3)C2)c1F [Example 348, 5-chloro-N-((1S,3R)-3-(2-(2-fluoro-3-methoxyphenyl)-6-(1H-1,2,4-triazol-3-yl)-1H-imidazo[4,5-c]pyridin-1-yl)cyclohexyl)thiophene-2-carboxamide] | ≤ 100 | < 500 | ≤ 100 |
| CC(C)Cc1nc2cnc(-c3nc[nH]n3)cc2n1[C@@H]1CCC[C@H](NC(=O)c2ncc(C#N)s2)C1 [Example 349, 5-cyano-N-((1S,3R)-3-(2-isobutyl-6-(1H-1,2,4-triazol-3-yl)-1H-imidazo[4,5-c]pyridin-1-yl)cyclohexyl)thiazole-2-carboxamide] | ≤ 100 | < 500 | 100 to 500 |
| CC(C)Cc1nc2cnc(-n3ncc(C(C)O)n3)cc2n1[C@@H]1CCC[C@H](NC(=O)c2ncc(Cl)s2)C1 (stereo partly drawn) [Example 350, 5-chloro-N-((1S,3R)-3-(6-(4-(1-hydroxyethyl)-2H-1,2,3-triazol-2-yl)-2-isobutyl-1H-imidazo[4,5-c]pyridin-1-yl)cyclohexyl)thiazole-2-carboxamide] | ≤ 100 | 500 to 1000 | 100 to 500 |
| COc1ccc(-c2nc3cnc(-c4nc[nH]n4)cc3n2[C@@H]2CCC[C@H](NC(=O)c3ccc(Cl)s3)C2)c(F)c1 [Example 351, 5-chloro-N-((1S,3R)-3-(2-(2-fluoro-4-methoxyphenyl)-6-(1H-1,2,4-triazol-3-yl)-1H-imidazo[4,5-c]pyridin-1-yl)cyclohexyl)thiophene-2-carboxamide] | 100 to 500 | 1000 to 5000 | 500 to 1000 |
| COc1ccccc1-c1nc2cnc(-c3nc[nH]n3)cc2n1[C@@H]1CCC[C@H](NC(=O)c2ncc(Cl)s2)C1 [Example 352, 5-chloro-N-((1S,3R)-3-(2-(2-methoxyphenyl)-6-(1H-1,2,4-triazol-3-yl)-1H-imidazo[4,5-c]pyridin-1-yl)cyclohexyl)thiazole-2-carboxamide] | ≤ 100 | < 500 | ≤ 100 |
| O=C(N[C@H]1CCC[C@@H](n2c(-c3c(O)cccc3F)nc3cnc(-n4nccn4)cc32)C1)c1ncc(Cl)s1 [Example 354, 5-chloro-N-((1S,3R)-3-(2-(2-fluoro-6-hydroxyphenyl)-6-(2H-1,2,3-triazol-2-yl)-1H-imidazo[4,5-c]pyridin-1-yl)cyclohexyl)thiazole-2-carboxamide] | ≤ 100 | < 500 | ≤ 100 |
| N#CCc1ccccc1-c1nc2cnc(-c3nc[nH]n3)cc2n1[C@@H]1CCC[C@H](NC(=O)c2ncc(Cl)s2)C1 [Example 355, 5-chloro-N-((1S,3R)-3-(2-(2-(cyanomethyl)phenyl)-6-(1H-1,2,4-triazol-3-yl)-1H-imidazo[4,5-c]pyridin-1-yl)cyclohexyl)thiazole-2-carboxamide] | ≤ 100 | < 500 | ≤ 100 |
| N#Cc1ccccc1-c1nc2cnc(-c3nc[nH]n3)cc2n1[C@@H]1CCC[C@H](NC(=O)c2ccc(Cl)s2)C1 [Example 356, 5-chloro-N-((1S,3R)-3-(2-(2-cyanophenyl)-6-(1H-1,2,4-triazol-3-yl)-1H-imidazo[4,5-c]pyridin-1-yl)cyclohexyl)thiophene-2-carboxamide] | ≤ 100 | 500 to 1000 | ≤ 100 |
